Paper PMC6337619, “Identification of Novel Potential Inhibitors of Pteridine Reductase 1 in Trypanosoma brucei via Computational Structure-Based Approaches and in Vitro Inhibition Assays” (Molecules, 2019)
Several values for one entry are separate records, joined by “and”; a condition that tells them apart may be missing. Identical values can stand only once. Entries after “also recorded” stand apart in the source; their conditions may differ. Like-named read-outs stand apart in the source and are kept apart here.

Legend:
[1] = In vitro human cytotoxicity assay (resazurin); conditions: human, HeLa cells
Procedure: (§2) The compounds assayed for trypanocidal activity were also tested to determine if they caused adverse effects against human cells in vitro. For this assay, HeLa cells were used. The cells were cultured in DMEM supplemented with 10% fetal calf serum and antibiotics (penicillin/streptomycin/amphotericin B) at 37 °C in a 5 % CO2 incubator. Cells were plated at a density of 2 × 10^4 cells/well and after an overnight incubation the compounds were assayed for cytotoxic activity by adding three-fold serial dilutions of each compound (with a 100 µM starting concentration) to the 96-well plates, followed by incubation for 48 h. Cell viability was determined using the resazurin method [74]. Resazurin (0.5 mM in phosphate-buffered saline; 20 µL/well) was added to the cells and, after a 2-h incubation, fluorescence was read in a Spectramax M3 plate reader at excitation and emission wavelengths of 560 nm and 590 nm, respectively. Fluorescence readings were converted to percentage cell viability relative to control wells untreated with compounds. Plots of % cell viability versus log[compound] were used to determine IC50 values by non-linear regression using GraphPad Prism (version 5.02, GraphPad Software Inc., San Diego, USA). Three repeats of the experiment were carried out.

[2] = system: T. b. brucei (strain Lister 427); experiment: Trypanosoma in vitro inhibition assay (resazurin); type: cell-based; conditions: for anti-trypanosomal activity at single concentration: 20 µM, T. brucei BSF in culture; for IC50: blood stream form, 24 h + 24 h resazurin, mean ± SD of three independent experiments, read-out: IC50 against T. brucei BSF in culture
Procedure: (§1) Compounds RUBi001, RUBi005, and RUBi015 were purchased from MCULE while RUBi002, RUBi004, RUBi007, RUBi008, RUBi010, RUBi011, RUBi012, RUBi014, RUBi016, and RUBi018 were obtained from MolPort (not all the compounds were commercially available). These compounds were assayed for trypanocidal activity by adding 20 μM of each compound to cultures of T. b. brucei (strain Lister 427) in 96-well plates. The parasites were maintained at 37 °C and 5% CO2 in an IMDM medium containing 25 mM HEPES, 10% fetal bovine serum, 1 mM hypoxanthine, 0.05 mM bathocuproine disulfonic acid, 1.5 mM cysteine, 1.25 mM pyruvic acid, 0.09 mM uracil, 0.09 mM cytosine, 0.16 mM thymidine, and 0.014 % 2-mercaptoethanol. Parasites were diluted to 2.4 × 10^4 cells in a volume of 200 µL per well and incubated with the test compounds for 24 h. Parasite percentage viability was determined using the resazurin method. Resazurin (0.5 mM in phosphate-buffered saline; 20 µL/well) was added to each well and incubation continued for a further 24 h, after which fluorescence (Ex560/Em590) was read in a Spectramax M3 microplate reader (Molecular Devices). Trypanocidal activity of the compounds was reported as the percentage of viable parasites in the compound-treated wells when compared to untreated controls (% viability). Pentamidine, an FDA-approved trypanocidal drug, was used as the control drug standard. For compounds that produced <20% viability, IC50 values were subsequently determined. The assays were conducted as described above, except that parasites were incubated with 3-fold serial dilutions of the test compounds and IC50 values derived from % parasite viability vs. log[compound] dose-response plots by non-linear regression analysis using GraphPad Prism (version 5.02, GraphPad Software Inc., San Diego, USA). IC50 evaluations were carried out on three independent occasions and the mean IC50 ± standard deviation is reported in the text. To assess compound interactions, the compounds were assayed for trypanocidal activity when used in combination with WR99210, a known TbDHFR inhibitor [42]. […] For isobologram analysis, the fractional inhibitory concentrations of the RUBi compounds and WR99210 were calculated by dividing the IC50s obtained for the compounds at the various combination ratios with the IC50 obtained for the compounds in the absence of the partner drug, and the FIC values plotted against each other, i.e., RUBi compound FIC versus WR99210 FIC.

[3] = system: T. b. brucei (strain Lister 427); experiment: Isobologram combination assay with WR99210; type: cell-based; conditions: ratios 75:25, 50:50, 25:75 with TbDHFR inhibitor WR99210
Procedure: as §1

HeLa cells = experiment: In vitro human cytotoxicity assay (resazurin); conditions: at 100 µM
Procedure: as §2

in vitro = conditions: human, HeLa cells
Procedure: as §2

T. brucei in culture = system: T. brucei in culture; set-up: method as in PMID 16729575, PMID 16569852; conditions: cited from earlier work

SMILES | anti-trypanosomal activity at single concentration [2] | effect in combination with WR99210 (isobologram, FIC) [3] | IC50 ([2]; Trypanosoma brucei, 48 h) | other results
CC[C@H]1CN2CCc3cc(OC)c(OC)cc3[C@@H]2C[C@@H]1C[C@H]1NCCc2cc(OC)c(OC)cc21 [Emetine, reference compound] |  |  |  | IC50 at 48 h [1]: 0.013 µM
O=c1cc(-c2cccc(O)c2O)oc2ccc(O)cc12 [RUBi001, 2-(2,3-dihydroxyphenyl)-6-hydroxychromen-4-one] | did not show anti-trypanosomal activity |  |  | 
COc1ccc2oc3cc(OCC(=O)Nc4c(C)cccc4C)cc(O)c3c(=O)c2c1 [RUBi002, N-(2,6-dimethylphenyl)-2-(1-hydroxy-7-methoxy-9-oxo-xanthen-3-yl)oxy-acetamide] | did not show anti-trypanosomal activity |  |  | 
CC1=NN(c2ccc(C)cc2C)C(=O)/C1=C/NNC(=O)c1cccc([N+](=O)[O-])c1 [RUBi004, N'-{[1-(2,4-dimethylphenyl)-3-methyl-5-oxo-1,5-dihydro-4H-pyrazol-4-ylidene]methyl}-3-nitrobenzohydrazide] |  | reduced inhibition; also recorded: moderate to strong antagonism; also recorded: antagonistic effect | 9.6 ± 3.2 µM | IC50 at 48 h [1]: 23.6 ± 5.8 µM
Cc1ccccc1OCC(=O)NNC(=S)NC(=O)c1ccccc1[N+](=O)[O-] [RUBi005, 2-nitro-N-({2-[(2-methylphenoxy)acetyl]hydrazino}carbothioyl)benzamide] | did not show anti-trypanosomal activity |  |  | 
COc1ccc(NC(=O)CSc2nc3[nH]ncc3c(=O)n2-c2ccccc2)cc1 [RUBi007, N-(4-methoxyphenyl)-2-[(4-oxo-5-phenyl-4,5-dihydro-1H-pyrazolo[3,4-d]pyrimidin-6-yl)sulfanyl]acetamide] |  | reduced inhibition; also recorded: moderate to strong antagonism; also recorded: antagonistic effects | 34.9 ± 17.1 µM | human cell cytotoxicity (HeLa cells): no significant human (human cervix adenocarcinoma (HeLa)) cell cytotoxicity; viability at 48 h, 100 µM (in vitro): > 90%; effect in combination with WR99210 (isobologram, FIC) ([3]; listed as RUB007): antagonistic effect
COc1cc(CNc2nc[nH]n2)ccc1OCc1cccc(C)c1 [RUBi008, [3-Methoxy-4-(3-methyl-benzyloxy)-benzyl]-(1H-[1,2,4]triazol-3-yl)-amine] | did not show anti-trypanosomal activity |  |  | 
Nc1ccc2nc(SCC(=O)N3CCCC3)sc2c1 [RUBi010, 2-{[2-oxo-2-(1-pyrrolidinyl)ethyl]sulfanyl}-1,3-benzothiazol-6-ylamine] | did not show anti-trypanosomal activity |  |  | 
Cc1ccc(NC(=O)Cn2c(-c3nonc3N)nc3ccccc32)cc1F [RUBi011, 2-[2-(4-amino-1,2,5-oxadiazol-3-yl)-1H-benzimidazol-1-yl]-N-(3-fluoro-4-methylphenyl)acetamide] | did not show anti-trypanosomal activity |  |  | 
NS(=O)(=O)c1ccc(NC(=O)NC2CCCCC2)cc1 [RUBi012, 1-cyclohexyl-3-(4-sulfamoylphenyl)urea] | did not show anti-trypanosomal activity |  |  | 
O=C1CC(c2ccc(O)c(O)c2)Oc2cc(O)cc(O)c21 (stereo not drawn) [RUBi014, 2-(3,4-dihydroxyphenyl)-5,7-dihydroxy-3,4-dihydro-2H-1-benzopyran-4-one] |  | reduced inhibition; also recorded: moderate to strong antagonism; also recorded: antagonistic effect | 14.6 ± 9.9 µM | IC50 at 48 h [1]: 32.9 ± 2.2 µM; anti-protozoal activity (T. brucei in culture): selectively anti-protozoal with activity against T. brucei in culture
Cn1c(=O)c2ncn(CC(=O)Nc3ccc(O)cc3)c2n(C)c1=O [RUBi016, 2-(1,3-dimethyl-2,6-dioxo-1,2,3,6-tetrahydro-9H-purin-9-yl)-N-(4-hydroxyphenyl)acetamide] |  | additive effect | 25.4 ± 4.7 µM | human cell cytotoxicity (HeLa cells): no significant human (human cervix adenocarcinoma (HeLa)) cell cytotoxicity; viability at 48 h, 100 µM (in vitro): > 90%
O=C(CC1S/C(=N\N=C2CCCC2)N=C1O)Nc1ccccc1 (stereo not drawn) [RUBi018, 2-[2-(cyclopentylidenehydrazono)-4-hydroxy-2,5-dihydro-1,3-thiazol-5-yl]-N-phenylacetamide] |  | reduced inhibition; also recorded: moderate to strong antagonism; also recorded: antagonistic effect | 12.7 ± 3.7 µM | human cell cytotoxicity (HeLa cells): no significant human (human cervix adenocarcinoma (HeLa)) cell cytotoxicity; viability at 48 h, 100 µM (in vitro): > 90%
CC1(C)N=C(N)N=C(N)N1OCCCOc1cc(Cl)c(Cl)cc1Cl [WR99210, reference compound] |  |  |  | IC50 [2]: 0.5 µM and 0.55 µM
N=C(N)c1ccc(OCCCCCOc2ccc(C(=N)N)cc2)cc1 [pentamidine, reference compound] |  |  | 0.014 µM | 
